Assay: HILIC, Waters ACQUITY UPLC BEH Amide, 100 × 2.1 mm, 1.7 µm; A: water + 0.125% formic acid + 10 mM ammonium formate; B: 5% water + 95% acetonitrile + 0.125% formic acid + 10 mM ammonium formate; gradient (min/%B) 0/100 2/100 7.7/70 9.5/40 10.25/30 12.75/100 17/100
Settings: stereoisomer not certain

Row | SMILES | LC retention time [min]
1 | O=c1ccn(C2OC(COP(=O)(O)O)C(O)C2O)c(=O)[nH]1 (centres undefined) [Uridine 5'-monophosphate] | 8.97
2 | CN1C(=O)CN=C(c2ccccc2F)c2cc([N+](=O)[O-])ccc21 [Flunitrazepam] | 1.05
3 | CNC(C)C(=O)O (centres undefined) [N-Methylalanine] | 7.67
4 | CC(C)=CCCC(C)=CC(=O)O [Geranic acid] | 1.3
5 | CC(C)=CCN1CCC2(C)c3cc(O)ccc3CC1C2C (centres undefined) [Pentazocine] | 2.65
6 | CC(C)C(N)C(=O)O (centres undefined) [Valine] | 7.24
7 | c1c[nH]cn1 [Imidazole] | 4.53
8 | c1ccc2c3c([nH]c2c1)CNCC3 [Tryptoline] | 4.9
9 | NC(CS(=O)(=O)O)C(=O)O (centres undefined) [Cysteic acid] | 8.92
10 | CNCC(=O)O [Sarcosine] | 7.82
11 | CCN1CCCC1CNC(=O)c1c(O)c(Cl)cc(Cl)c1OC (centres undefined) [Raclopride] | 2.11
12 | CC(=O)NCCCC(=O)O [4-Acetamidobutyric acid] | 2.26
13 | OCC1OCC(O)C(O)C1O (centres undefined) [1,5-Anhydrosorbitol] | 0.92
14 | CC12CCC(=O)C=C1CCC1C2C(=O)CC2(C)C1CCC2(O)C(=O)CO (centres undefined) [Cortisone] | 1.29
15 | CCc1c2c(nc3ccc(OC(=O)N4CCC(N5CCCCC5)CC4)cc13)-c1cc3c(c(=O)n1C2)COC(=O)C3(O)CC (centres undefined) [Irinotecan] | 5.03
16 | CC(=O)NCCC(=O)NC(Cc1cnc[nH]1)C(=O)O [N-Acetyl-L-carnosine] | 8.35
17 | CN(C)c1ccc(N=Nc2ccccc2)cc1 [p-(Dimethylamino)azobenzene [methyl yellow]] | 0.93
18 | COc1ccc2c3c1OC1C(=O)CCC4(O)C(C2)N(C)CCC314 (centres undefined) [Oxycodone] | 4.58
19 | O=C(O)CCC(=O)O [Succinic acid] | 4.46

Row | SMILES | LC retention time [min]
20 | NC(=O)NCCC(=O)O [3-Ureidopropionic acid] | 5.6
21 | CC(=O)OC12COC1CC(O)C1(C)C(=O)C(O)C3=C(C)C(OC(=O)C(O)C(NC(=O)OC(C)(C)C)c4ccccc4)CC(O)(C(OC(=O)c4ccccc4)C21)C3(C)C (centres undefined) [Docetaxel] | 1.34
22 | CN1C2CCC1C(C(=O)O)C(OC(=O)c1ccccc1)C2 (centres undefined) [Benzoylecgonine] | 3.63
23 | CC(=O)CCCCn1cnc2c1c(=O)n(C)c(=O)n2C [Lomifylline] | 1.09
24 | Cn1c(=O)c2[nH]cnc2n(C)c1=O [Theophylline] | 1.54
25 | c1ccncc1 [Pyridine] | 6.63
26 | Nc1ncnc2nc[nH]c12 [Adenine] | 4.71
27 | NC(=O)OCCCc1ccccc1 [Phenprobamate] | 1.01
28 | CNC(=C[N+](=O)[O-])NCCSCc1csc(CN(C)C)n1 [Nizatidine] | 4.65
29 | C#CC1(O)CCC2C3CCc4cc(O)ccc4C3CCC21C (centres undefined) [Ethynylestradiol] | 0.99
30 | C[N+](C)(C)CCOP(=O)([O-])OCC(O)CO (centres undefined) [Glycerophosphocholine] | 8.67
31 | CC1CNC(=O)NC1=O (centres undefined) [5,6-Dihydro-5-methyluracil] | 1.57
32 | NC(=O)NCCCC(N)C(=O)O (centres undefined) [Citrulline] | 8.74
33 | CC(=O)OCC(N)C(=O)O (centres undefined) [O-Acetylserine] | 7.67
34 | CC(C)NCC(O)c1ccc(NS(C)(=O)=O)cc1 (centres undefined) [Sotalol] | 4.87
35 | CC12Cc3cn[nH]c3CC1CCC1C2CCC2(C)C1CCC2(C)O (centres undefined) [Stanozolol] | 1.19
36 | Nc1nnc(-c2cccc(Cl)c2Cl)c(N)n1 [Lamotrigine] | 1.98
37 | NCCP(=O)(O)O [2-Aminoethylphosphonic acid] | 9.39
38 | OC1CCCCC1O (centres undefined) [1,2-Cyclohexanediol] | 4.88

Row | SMILES | LC retention time [min]
39 | CN1CCC23CCCCC2C1Cc1ccc(O)cc13 (centres undefined) [Dextrorphan] | 3.87
40 | CSCCC(N)C(=O)O (centres undefined) [Methionine] | 7.37
41 | CCN(CC)CCN1C(=O)CN=C(c2ccccc2F)c2cc(Cl)ccc21 [Flurazepam] | 2.41
42 | CC=C1N(C)C(C)CC1(c1ccccc1)c1ccccc1 (centres undefined) [EDDP] | 1.9
43 | COc1cc2c(cc1OC)C1C(C)c3ccc(OC)c(OC)c3CN1CC2 (centres undefined) [Corydaline] | 1.52
44 | Oc1ccc2c3c1OC1C(O)CCC4(O)C(C2)N(CC2CCC2)CCC314 (centres undefined) [Nalbuphine] | 5.25
45 | CC(O)C(C)C(=O)O (centres undefined) [Methyl-3-hydroxybutyric acid] | 6.22
46 | CC(=O)N1CCN(c2ccc(OCC3COC(Cn4ccnc4)(c4ccc(Cl)cc4Cl)O3)cc2)CC1 (centres undefined) [Ketoconazole] | 1.73
47 | CCC(C)C(=O)OC1CCC=C2C=CC(C)C(CCC3CC(O)CC(=O)O3)C21 (centres undefined) [Mevastatin] | 0.99
48 | CC(C)C(NC(=O)C(N)CCCCN)C(=O)O (centres undefined) [Lys-Val] | 9.38
49 | CCCCCCCCCC=O [Decanal] | 2.17
50 | CN1CCC23c4c5ccc(O)c4OC2C(=O)CCC3(O)C1C5 (centres undefined) [Oxymorphone] | 5.5
51 | COC1=C(OC)C(=O)C(CCCCCCCCCCO)=C(C)C1=O [Idebenone] | 0.96
52 | NC(=O)NCCCC[C@H](N)C(=O)O [L-Homocitrulline] | 8.73
53 | COCC1OC(n2cc(C)c(=O)[nH]c2=O)CC1O (centres undefined) [5'-O-Methylthymidine] | 1.46
54 | Cc1ncc(COP(=O)(O)O)c(C=O)c1O [Pyridoxal-5-phosphate] | 7.7
55 | Cc1ccccc1-n1c(C)nc2ccccc2c1=O [Methaqualone] | 1.1
56 | COC(=O)C1C(O)CC2CCC1N2C (centres undefined) [Ecgonine methylester] | 4.18

The remaining lines, values ahead:

Row | LC retention time [min] | SMILES
57 | 2.85 | Clc1cccc(Cl)c1NC1=NCCN1 [Clonidine]
58 | 1.36 | Oc1cc2ccccc2[nH]1 [2-Indolinone]
59 | 1.47 | Cc1cc(O)cc(=O)o1 [4-Hydroxy-6-methyl-2-pyrone]
60 | 1.01 | CCOC(=O)C(C)Oc1ccc(Oc2nc3ccc(Cl)cc3o2)cc1 (centres undefined) [Fenoxaprop-P-ethyl]
61 | 1.21 | COc1ccnc(CS(=O)c2nc3ccc(OC(F)F)cc3[nH]2)c1OC (centres undefined) [Pantoprazole]
62 | 5.23 | N=c1ccc2nc3ccc(N)cc3sc-2c1 [Thionin]
63 | 1.04 | CCCc1c(OCCCCc2nn[nH]n2)ccc(C(C)=O)c1O [Tomelukast]
64 | 4.8 | CN(C)CCc1c[nH]c2ccc(CC3COC(=O)N3)cc12 (centres undefined) [Zolmitriptan]
65 | 1.53 | O=c1ccc2cccc(O)c2[nH]1 [2,8-Quinolinediol]
66 | 2.54 | OCCOCCN1CCN(C2=Nc3ccccc3Sc3ccccc32)CC1 [Quetiapine]
67 | 1.11 | O=C(NCCO[N+](=O)[O-])c1cccnc1 [Nicorandil]
68 | 2.31 | CN(C)CCCN1c2ccccc2CCc2ccc(Cl)cc21 [Clomipramine]
69 | 3.18 | O=C(O)c1cc(O)ccc1O [Gentisinic acid]
70 | 2.46 | CNCCCCOc1ccccc1Cc1ccccc1 [Bifemelane]
71 | 1.15 | Oc1cc(O)cc(O)c1 [Phloroglucinol]
72 | 1.07 | CC1C(=O)Nc2ccccc21 (centres undefined) [3-Methyloxyindole]
73 | 1.12 | Clc1ccccc1CN1CCc2sccc2C1 [Ticlopidine]
74 | 2.81 | CC(=O)NC(Cc1c[nH]c2ccccc12)C(=O)O (centres undefined) [N-Acetyltryptophan]
75 | 7.4 | NCc1[nH]cc(CCC(=O)O)c1CC(=O)O [Porphobilinogen]

Row | LC retention time [min] | SMILES
76 | 9.72 | NC(Cc1ccc(OP(=O)(O)O)cc1)C(=O)O (centres undefined) [Phosphotyrosine]
77 | 6.15 | O=C(O)c1cc(=O)c2ccccc2[nH]1 [Kynurenic acid]
78 | 0.95 | COC(=O)C1=C(C)NC(C)=C(C(=O)OC(C)C)C1c1cccc2nonc12 (centres undefined) [Isradipine]
79 | 4.97 | Cc1cccc(C)c1NC(=O)C(C)N (centres undefined) [Tocainide]
80 | 2.21 | CN1CCN(c2nc3cc(C(F)(F)F)ccc3n3cccc23)CC1
81 | 1.16 | CCCCC1=NC2(CCCC2)C(=O)N1Cc1ccc(-c2ccccc2-c2nn[nH]n2)cc1 [Irbesartan]
82 | 4.58 | O=C(O)c1ccnc2ccccc12 [4-Quinolinecarboxylic acid]
83 | 3.48 | O=C(CCCN1CC=C(n2c(=O)[nH]c3ccccc32)CC1)c1ccc(F)cc1 [Droperidol]
84 | 1.31 | COc1ccc2c(c1OC)C(=O)OC2C1c2c(cc3c(c2OC)OCO3)CCN1C (centres undefined) [Noscapine]
85 | 2.88 | O=C(O)CNC(=O)Cc1ccccc1 [Phenylacetylglycine]
86 | 1.19 | CN1CC(=O)N2C(Cc3c([nH]c4ccccc34)C2c2ccc3c(c2)OCO3)C1=O (centres undefined) [Taldalafil]
87 | 1.98 | CN(C)CCN(Cc1ccccc1)c1ccccn1 [Tripelennamine]
88 | 1.4 | CCOC(=O)C(CCc1ccccc1)NC(C)C(=O)N1C(C(=O)O)CC2CCCC21 (centres undefined) [Ramipril]
89 | 1.09 | CC1=NS(=O)(=O)c2cc(Cl)ccc2N1 [Diazoxide]
90 | 5.68 | Oc1ccc(C2CNCCc3c2cc(O)c(O)c3Cl)cc1 (centres undefined) [Fenoldopam]
91 | 2.31 | CN1CCC(=C2c3ccccc3C=Cc3ccccc32)CC1 [Cyproheptadine]
92 | 2.01 | O=C(O)c1cc(N=Nc2ccc(S(=O)(=O)Nc3ccccn3)cc2)ccc1O [Sulfasalazine]
93 | 3.23 | CCN(CC)C(=O)C1(c2ccccc2)CC1CN (centres undefined) [Milnacipran]
94 | 1.27 | O=c1c(-c2ccc(O)cc2)coc2cc(O)cc(O)c12 [4,5,7-Trihydroxyisoflavone]

Reference: the RepoRT retention time repository
